Test results taken from patent US20090118204A1, “Methods and Compositions Related to Esculentoside A” (UNIVERSITY OF ROCHESTER, priority 2004, published 2009).
“Also recorded” adds a separate entry of the source. Read-outs that look alike come from different tables or passages of the source.

Tests used:
C57BL/6 mice [1] = experiment: IR-induced early soft tissue (skin) toxicity in mice; type: in vivo, mouse; conditions: for skin damage score: day 19 after 30 Gy single dose IR, EsA 10 mg/kg i.p., Celebrex 50 mg/kg intragastric, 16 h before then daily, Table 4 criteria 1.0 normal to 5.0 necrosis, control above 4.5
Protocol: EsA protects the soft tissue from IR-induced damage. IR sensitive and IL1β high expressing C57BL/6 mice are irradiated with 30 Gy and the skin damage is measured with a preclinical criteria (Table 4).
The effect of EsA was examined with this model system. […] The difference was statistically significant (FIG. 7).
A repeat experiment was performed with an increased number of mice (10 mice/group), and the EsA protective effect was confirmed.

murine ears = conditions: induced by zylene, acute inflammation model; cited from earlier work
activated splenocytes = conditions: cited from earlier work
mouse = experiment: Alopecia and hair regrowth after 30 Gy irradiation; type: in vivo
peritoneal macrophages = conditions: macrophages from mice pretreated with thioglycolate; cited from earlier work
[2] = test system: IL1β production in A431 human epidermoid carcinoma cells; experiment: IR-induced IL1β production (ELISA) in A431; type: cell-based
[3] = test system: Lewis' lung carcinoma cells; experiment: Tumor growth of Lewis' lung carcinoma in syngeneic mice; type: in vivo, mouse; conditions: daily for 20 days, same dose as in soft tissue protection
Text: Considering that EsA is used as a radioprotector in patients with tumors, its effect on tumor growth is a critical issue for its application.

rat hind paws = conditions: cited from earlier work; for swelling of hind paws: induced by carrageenan
C57BL/6 mice [4] = conditions: 40 Gy whole head; EsA 10 mg/kg i.p., Dex 3 mg/kg i.v. before IR; brains taken 24 h later; P<0.05
Protocol: 16 hour before the whole heads of mice were irradiated at 40 Gy.
The mice without radiation served as negative controls. Twenty four hours later, the whole brain was taken out, weighed (wet weight), placed on aluminum foil and placed in an oven at 60° C. At different time points (10 min intervals for the first 2 hours and then 4, 6, 24 hr), the brains were weighed, and the results were expressed as: % water={(wet weight−dry weight)/wet weight}×100%. The higher the % water, the greater the severity of edema. Brain % water as a function of time provided a brain drying curve.

sensitized mice = conditions: mouse, in vivo; cited from earlier work
human recombinant COX-2 = target: T1, human recombinant COX-2 (Homo sapiens, UniProt P35354); experiment: Cayman COX Inhibitor Screening Assay, COX-2; type: biochemical; conditions: prostanoid quantified by EIA
T1 construct: purchased Cayman 560131
Text: (§1) It is known that constitutive COX-1 and inducible COX-2 catalyze the production of prostaglandins (PGs) from arachidonic acid. The Cayman COX Inhibitor Screening Assay kit directly measures PGF2α produced by SnCl2 reduction of COX-derived PGH2. The prostanoid product is quantified via enzyme immunoassay (EIA) using a broadly specific antibody that binds to all the major prostaglandin compounds (FIG. 15A). To distinguish the inhibition of COX-1 from COX-2, both ovine COX-1 and human recombinant COX-2 enzymes were used as targets. […] EsA is a novel COX-2 inhibitor, which accounts for its observed protective effects on skin (FIGS. 5-7) and brain (FIGS. 8-9).

[5] = test system: granuloma induced by cotton pellet; conditions: cited from earlier work
[6] = test system: NO production in Raw264.7; experiment: IR-induced NO production (nitrite, Griess) in Raw264.7; type: cell-based, mouse; conditions: EsA 0.5 or 5 μg/ml added 8 hours before 4 Gy; media 24 hours later
Protocol: (§2) The anti-tumor effectiveness of IR is based in part on triggering the reactive oxygen species and free radicals in tumors; meanwhile, IR also damages normal tissues and causes unwanted toxicity.
(§3) The study was carried out in Raw264.7 cells that were irradiated with 0, 2, 4 and 8 Gy. […] At this optimal condition, EsA (0.5 or 5 μg/ml) was added 8 hours before the IR at 4 Gy and 24 hours later, the media was harvested and 100 μl of media was measured for NO content in the form of nitrite. […] To see if this inhibition was cell line specific, another human macrophage cell line THP-1 was examined.

[7] = target: T2, glucocorticoids receptor (GR) (Mus musculus, UniProt P06537); experiment: CAT reporter assay for hormone transactivity in E8.2.A3 cells, GR; type: cell-based; conditions: 44 hours; EsA 0.4 ng/ml to 40000 μg/ml; Dex 5×10^−7 M
T2 construct: expressed in transfected cells
Protocol: (§4) Structurally, EsA has a certain similarity with steroidal hormone, especially a steroid-like back-bone. […] A sensitive reporter system for the hormone transactivity of glucocorticoids receptor (GR) and androgen receptor (AR) was set up as elucidated in the chart (FIG. 12). […] Individual clones with stably transfected mGR and CAT reporter gene were selected with 400 μg/ml of G418 in DMEM medium containing 3% charcoal stripped new born calf serum. […] The treated cells were washed with phosphate buffer saline (PBS) once. To each well, 0.25 ml of 0.25M Tris-HCl was added. The plates underwent 3 cycles of freeze and thaw at −70° C. and room temperature followed by heating at 65° C. for 10 min by floating the plates in a hot water bath. Then, 0.1 ml of cell lysate from each well was used for the CAT assay. […] Briefly, 100 μl of cell lysate from each well were mixed with 150 μl reaction solution (128 μl of 0.25 M Tris-HCl, pH 7.8, 2 μl of the commercial ^3H-acetyl CoA and 20 μl of 2 mg/ml chloramphenicol) in the scintillation vials. To each vial, 2 ml non-aqueous scintillation fluid was added and mixed with the reaction by shaking or vortexing. The vials were counted 3-6 times in a scintillation counter at regular intervals over 1 to 4 hours.

NO production in THP-1 = experiment: IR-induced NO production in THP-1; type: cell-based, human; conditions: 0.1, 0.5 and 5 μg/ml EsA; NO up-regulated 5 fold 4 hours after IR
Protocol: as §2, §3

[8] = test system: prostaglandin E2 (PGE2), platelet-activating factor (PAF), and nitric oxide (NO); conditions: cited from earlier work
ovine COX-1 = target: T3, ovine COX-1 (Ovis aries, UniProt P05979); experiment: Cayman COX Inhibitor Screening Assay, COX-1; type: biochemical; conditions: prostanoid quantified by EIA
T3 construct: purchased Cayman 560131
Text: as §1

androgen receptor (AR) = target: T4, androgen receptor (AR) (Mus musculus, UniProt P19091); experiment: CAT reporter assay for hormone transactivity in E8.2.A3 cells, AR; type: cell-based; conditions: 44 hours; EsA 0.4 ng/ml to 40000 μg/ml; DHT 5×10^−7 M
T4 construct: contain high levels of AR; endogenous in cells; host or cells: E8.2.A3 cells (mouse L cell fibroblast variant)
Protocol: as §4

[9] = test system: IL1α production by RAW264.7; experiment: IL1α production by macrophages; type: cell-based, mouse; conditions: FIG. 29, in vitro macrophages
E8.2.A3 cells = experiment: Morphological changes and cell death in reporter cells; type: cell-based, mouse; conditions: 44 hours, observed twice a day
[10] = test system: IL1β production in Raw 264.7 macrophage cells; experiment: IR-induced IL1β production (ELISA) in Raw 264.7; type: cell-based, mouse; conditions: 2 Gy, 24 hours culture
Protocol: IL1β is crucial mediator in early IR toxicity of both brain and soft tissue. […] The protective effect of EsA on early IR toxicity results in part from this effect. First we determined the optimal IR dose to induce IL1 production in Raw 264.7 macrophage cells. Equal numbers of cells were exposed to 0, 2, 4 and 8 Gy IR and 24 hours later, the conditioned media were harvested and 100 μl of media from each sample was measured for IL1β concentration by specific IL1β ELISA using monoclonal antibodies (purchased from R&D Systems, Inc). […] Therefore, 2 Gy was used as optimal IR dose for Raw 264.7 for this set of tests. The cells were treated with 0.1 or 1 μg/ml of EsA for 18 hours, irradiated at 2Gy and then cultured for another 24 hours. The media were measured for protein level of IL1β by ELISA.

activated thymocytes = conditions: cited from earlier work
ICAM-1 and CD18 = conditions: LPS-induced; cited from earlier work
[11] = test system: VEGF production by mouse fibroblast L-929; experiment: VEGF production by fibroblasts; type: cell-based; conditions: FIG. 10
activated macrophages = conditions: cited from earlier work
[12] = test system: autoimmunity animal model; conditions: in vivo; cited from earlier work
[13] = test system: TNF production by Raw264.7; experiment: TNF production by macrophages with LPS and radiation; type: cell-based, mouse; conditions: FIG. 31, LPS and radiation
[14] = cited from earlier work
mice = conditions: following LPS challenge; cited from earlier work
IR brain edema = conditions: cited from earlier work
COX-2 transgenic mice = conditions: mouse, in vivo; cited from earlier work
[15] = relative long-term use (>2-3 weeks after IR)

T3 sequence (P05979 25-600): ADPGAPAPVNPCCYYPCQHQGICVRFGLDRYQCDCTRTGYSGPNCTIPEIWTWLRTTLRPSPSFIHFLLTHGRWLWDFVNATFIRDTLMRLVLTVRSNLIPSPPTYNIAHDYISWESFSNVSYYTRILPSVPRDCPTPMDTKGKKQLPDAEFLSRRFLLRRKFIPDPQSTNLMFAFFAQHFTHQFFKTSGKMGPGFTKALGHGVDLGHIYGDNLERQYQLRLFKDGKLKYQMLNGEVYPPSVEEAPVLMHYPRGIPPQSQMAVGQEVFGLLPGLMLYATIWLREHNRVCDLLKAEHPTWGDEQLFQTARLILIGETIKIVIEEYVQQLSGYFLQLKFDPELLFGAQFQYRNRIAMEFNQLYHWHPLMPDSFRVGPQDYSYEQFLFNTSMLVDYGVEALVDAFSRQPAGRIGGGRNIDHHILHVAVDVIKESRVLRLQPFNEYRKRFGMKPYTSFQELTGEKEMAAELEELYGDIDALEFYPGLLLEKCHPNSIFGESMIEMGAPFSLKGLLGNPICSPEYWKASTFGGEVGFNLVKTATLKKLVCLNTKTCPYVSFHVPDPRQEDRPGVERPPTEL
T1 sequence (P35354 18-604): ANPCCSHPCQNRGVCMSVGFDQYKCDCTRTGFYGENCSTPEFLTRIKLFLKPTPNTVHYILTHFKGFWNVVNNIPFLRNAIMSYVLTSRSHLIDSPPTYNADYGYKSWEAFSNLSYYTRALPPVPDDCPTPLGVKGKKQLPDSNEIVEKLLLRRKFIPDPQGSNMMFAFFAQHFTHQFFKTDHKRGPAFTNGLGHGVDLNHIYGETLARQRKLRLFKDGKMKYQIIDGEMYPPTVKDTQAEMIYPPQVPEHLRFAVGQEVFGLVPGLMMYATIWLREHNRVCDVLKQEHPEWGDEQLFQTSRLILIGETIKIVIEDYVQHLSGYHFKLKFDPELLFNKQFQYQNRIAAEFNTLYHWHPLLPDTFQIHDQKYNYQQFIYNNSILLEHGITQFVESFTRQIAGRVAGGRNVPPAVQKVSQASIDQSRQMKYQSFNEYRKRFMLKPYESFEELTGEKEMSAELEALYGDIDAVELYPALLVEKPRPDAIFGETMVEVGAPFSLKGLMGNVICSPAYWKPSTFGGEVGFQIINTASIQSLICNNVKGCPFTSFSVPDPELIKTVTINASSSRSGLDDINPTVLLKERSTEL
T4 sequence (P19091 whole entry): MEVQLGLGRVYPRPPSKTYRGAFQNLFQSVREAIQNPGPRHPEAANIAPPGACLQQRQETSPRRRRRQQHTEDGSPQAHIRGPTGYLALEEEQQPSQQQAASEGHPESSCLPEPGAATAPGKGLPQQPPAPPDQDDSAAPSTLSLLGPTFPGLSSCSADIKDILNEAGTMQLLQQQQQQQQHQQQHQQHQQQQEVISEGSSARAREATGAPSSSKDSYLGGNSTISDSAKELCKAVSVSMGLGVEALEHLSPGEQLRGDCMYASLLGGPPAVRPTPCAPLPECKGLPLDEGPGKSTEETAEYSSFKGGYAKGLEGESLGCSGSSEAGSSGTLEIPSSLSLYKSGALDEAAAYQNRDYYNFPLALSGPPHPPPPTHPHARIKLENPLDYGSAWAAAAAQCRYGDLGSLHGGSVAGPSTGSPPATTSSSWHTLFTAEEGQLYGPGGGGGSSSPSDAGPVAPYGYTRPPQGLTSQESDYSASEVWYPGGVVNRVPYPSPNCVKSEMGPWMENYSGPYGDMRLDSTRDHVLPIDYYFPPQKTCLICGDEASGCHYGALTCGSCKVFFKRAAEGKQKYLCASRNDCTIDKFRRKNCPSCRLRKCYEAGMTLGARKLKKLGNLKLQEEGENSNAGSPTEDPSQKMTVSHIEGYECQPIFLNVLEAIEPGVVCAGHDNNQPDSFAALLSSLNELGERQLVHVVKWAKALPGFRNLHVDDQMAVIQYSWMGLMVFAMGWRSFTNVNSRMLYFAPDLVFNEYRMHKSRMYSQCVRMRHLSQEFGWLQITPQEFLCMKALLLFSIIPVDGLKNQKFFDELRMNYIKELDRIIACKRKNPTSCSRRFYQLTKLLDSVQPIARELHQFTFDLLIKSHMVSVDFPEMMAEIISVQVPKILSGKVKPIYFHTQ
T2 sequence (P06537 whole entry): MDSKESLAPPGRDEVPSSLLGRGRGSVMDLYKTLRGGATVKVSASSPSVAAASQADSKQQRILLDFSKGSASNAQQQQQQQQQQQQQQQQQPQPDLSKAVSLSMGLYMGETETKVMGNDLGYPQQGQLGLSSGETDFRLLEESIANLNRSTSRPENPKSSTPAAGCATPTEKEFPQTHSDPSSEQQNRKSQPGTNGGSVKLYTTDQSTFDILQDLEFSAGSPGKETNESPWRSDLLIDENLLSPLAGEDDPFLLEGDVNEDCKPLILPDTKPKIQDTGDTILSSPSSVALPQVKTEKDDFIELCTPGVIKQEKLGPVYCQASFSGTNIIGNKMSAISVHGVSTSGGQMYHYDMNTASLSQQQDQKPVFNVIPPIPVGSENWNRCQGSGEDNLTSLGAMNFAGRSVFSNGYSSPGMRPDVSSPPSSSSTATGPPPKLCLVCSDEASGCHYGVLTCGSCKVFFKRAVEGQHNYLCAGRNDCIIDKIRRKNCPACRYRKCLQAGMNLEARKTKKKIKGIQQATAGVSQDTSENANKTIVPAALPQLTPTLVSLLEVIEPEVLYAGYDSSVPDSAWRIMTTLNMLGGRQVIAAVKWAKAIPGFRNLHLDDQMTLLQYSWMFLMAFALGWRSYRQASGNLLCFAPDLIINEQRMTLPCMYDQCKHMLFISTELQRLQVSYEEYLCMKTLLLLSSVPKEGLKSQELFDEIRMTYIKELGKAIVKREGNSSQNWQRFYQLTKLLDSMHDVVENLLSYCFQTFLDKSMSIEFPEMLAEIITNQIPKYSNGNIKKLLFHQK

## Cc1ccc(-c2cc(C(F)(F)F)nn2-c2ccc(S(N)(=O)=O)cc2)cc1 [Celebrex, celecoxib, reference compound]
C57BL/6 mice [1]
  skin damage score: about 3

## COC(=O)[C@@]1(C)CC[C@]2(C(=O)O)CC[C@]3(C)C(=CC[C@@H]4[C@@]5(C)C[C@H](O)[C@H](O[C@@H]6OC[C@@H](O[C@@H]7O[C@H](CO)[C@@H](O)[C@H](O)[C@H]7O)[C@H](O)[C@H]6O)[C@@](C)(CO)[C@@H]5CC[C@]43C)[C@@H]2C1 [EsA, Esculentoside A]
Murine ears
  swelling of ears: markedly lowered
Activated splenocytes
  production of IL-2: inhibited
mouse; 30 Gy, Celebrex i.g. 50 mg/kg for 20 days
  hair regrowth / duration of alopecia: after two weeks
mouse; EsA compared with celebrex
  recovery of cranial alopecia: recovered more quickly and completely
Peritoneal macrophages
  release of TNF, IL-1 and IL-6: significantly reduced
[2]; EsA 0.1 μg/ml, 4 Gy, P<0.01
  IL1β induced by IR: inhibited; also recorded: reduced
[2]; FIG. 27
  IL1β production induced by IR in vitro in epithelial cells: inhibitory effect
[3]
  tumor growth: little effect on tumor growth
Rat hind paws; acute inflammation models
  duration of the effects: more than 5 hours
Rat hind paws; adrenalectomised rat
  swelling of hind paws: suppressed
Rat hind paws
  swelling of hind paws: inhibited
C57BL/6 mice [4]
  brain edema (% water): reduction of brain edema was statistically significant; also recorded: less extensive brain edema; also recorded: can reduce IR-induced brain edema
Sensitized mice
  serum hemolysin concentration: markedly decreased
C57BL/6 mice [1]; 4 weeks after 30 Gy IR, same dosing
  protection of soft tissue: effectively protected the soft tissue
C57BL/6 mice [1]
  skin damage score: about 2
C57BL/6 mice [1]; [15]
  early IR skin toxicity: prevented
  second wave of IL1β: blocked
C57BL/6 mice [1]; whole course of EsA treatment
  signs of sickness: no signs of sickness were observed
Human recombinant COX-2
  effect on COX-2: inhibited the COX-2 in a dose-dependent manner
[5]
  proliferation of granuloma: significantly inhibited
[6]
  IR-induced NO production: inhibited
[7]
  glucocorticoidal hormone transactivity (CAT activity): neither androgen nor glucocorticoidal hormone transactivity
NO production in THP-1
  reduction of NO production: 3 fold
[8]
  production of PGE2, PAF and NO: inhibited
Ovine COX-1
  effect on COX-1: no effect
Androgen receptor (AR)
  androgen hormone transactivity (CAT activity): neither androgen nor glucocorticoidal hormone transactivity
[9]
  IL1α production: inhibitory effect
E8.2.A3 cells
  concentration at which death of cells was observed: 40 mg/mL
  concentration with no morphological change of cells: below 4 mg/ml
[10]; EsA 0.1 μg/ml for 18 hours
  IR-induced production of IL1β: dramatically inhibited; also recorded: reduced
[10]; EsA 1 μg/ml for 18 hours, P<0.01
  IR-induced production of IL1β: reduced the IL1β to the basal level
Activated thymocytes
  apoptosis of activated thymocytes: accelerated
ICAM-1 and CD18
  expression of adhesion molecules ICAM-1 and CD18: suppressed
[11]
  VEGF production: inhibitory effect
Activated macrophages
  macrophage functions (phagocytosis, antibody production, secretion of cytokines): diminished
[12]
  inflammation of joint and viscera: decreased
[13]
  TNF production: inhibitory effect
[14]
  water-solubility: high water-solubility
mice
  TNF, IL-1 and IL-6 levels in the sera: dose-dependently decreased

## CS(=O)(=O)Nc1ccc([N+](=O)[O-])cc1OC1CCCCC1 [NS-398]
IR brain edema; Moore et al. 2004
  induction of prostanoid and IR brain edema: blocked
IR brain edema; mouse, in vivo
  IR toxicity in brain and soft tissue: protected

## COc1ccc2c(c1)c(CC(=O)O)c(C)n2C(=O)c1ccc(Cl)cc1 [indomethacin]
COX-2 transgenic mice
  microvessel density: strongly decreased
  tumor progression: inhibited
  upregulation of angiogenic regulatory genes in mammary tissue: inhibited
